Data as given in patent US8409550B2, “Method for treating skin with retinoids and retinoid boosters” (Unilever Home & Personal Care, USA, Division of Conopco, …, priority 2000, dated 2013).
Several values for one entry are separate records, joined by “and”; a condition that tells them apart may be missing. Equal entries are not always repeated. Blank lines part the entries; values can stand above or below the substance they belong to.

What was measured:
Retinol Dehydrogenase = experiment: Assay for retinol dehydrogenase activity, rat liver microsomes (to identify B2); type: biochemical; details: test compound final 100 μM
Method: 2.2 Isolation of Rat Liver Microsomes (4)
The resulting homogenate was successively centrifuged for 30 min. at 10,000 g, 30 min. at 20,000 g, and 15 min. at 30,000 g, and the resulting supernatant was ultra-centrifuged for 80 min. at 105,000 g. […] Protein concentrations were determined as described above.
2.4 Assay for Retinol Dehydrogenase Activity (to Identify B2)
The following stock solutions were prepared:
50 mM KH2PO4, pH 7.4 buffer, sterile filtered.
10 mM all trans Retinol (Sigma 87632) in DMSO.
200 mM Nicotinamide adenine dinucleotide phosphate, sodium salt (NADP) (Sigma N0505) in sterile water.
40 mM test compound in appropriate solvent (water, buffer, ethanol, chloroform or DMSO).
1:10 dilution of rat liver Microsomes in 50 mM KH2PO4, pH 7.4 buffer (4 μg/μl).
In a two-dram glass vial with screw cap, the following were added in order:
Buffer to give a final volume of 400 μl
25 μl diluted Microsomes (final=100 μg)—boiled Microsomes were used for controls and regular Microsomes for test samples.
4 μl of 200 mM NADP (final=2 mM)
1 μl of 40 mM test compound (final=100 μM)
8 μl of 10 mM retinol (final=200 μM)
The vials were incubated in a 37° C. shaking water bath for 45 minutes. 500 μl ice-cold ethanol was added to each vial to quench the reaction. The retinoids were extracted twice with ice cold hexane (2.7 ml per extraction). […]

[1] = tested on: transglutaminase (TGase I); experiment: Transglutaminase (Tgase) ELISA assay in cultured keratinocytes with retinol and boosters; type: cell-based, human; details: for TG as % C, Compd 3: Compound 3 alone; for TG as % C, Compd 3 / TG as % C Compd 2 / TG as % C Compd 1: concentration one log below IC20; for Tgase levels (Mean): with 10^-7 M retinol
[2] = in the presence of 10^-7M retinol

% Increase Retinol Dehydrogenase (Retinol Dehydrogenase): 26% increase
TG as % C, Compd 3 [1, 2]: 60 % C
Tgase levels (Mean) ([1]; booster 1.0E−05 Molar): 77.8 % of control
Tgase levels (Mean) ([1]; booster 1.1E−06 Molar): 98.8 % of control
Tgase levels (Mean) ([1]; booster 1.23E−07 Molar): 70.0 % of control
Tgase levels (Mean) ([1]; booster 1.65E−09 Molar): 68.4 % of control
Tgase levels (Mean) ([1]; booster 3.0E−05 Molar): 45 % of control
Tgase levels (Mean) ([1]; booster 3.29E−10 Molar): 69.2 % of control
Tgase levels (Mean) ([1]; booster 3.33E−06 Molar): 76.4 % of control
Tgase levels (Mean) ([1]; booster 3.73E−07 Molar): 91.6 % of control
Tgase levels (Mean) ([1]; booster 4.10E−08 Molar): 74.6 % of control
Tgase levels (Mean) ([1]; booster 8.2E−08 Molar): 115.2 % of control
TG as % C Compd 2 ([1]; compound 2 alone, with retinol): 84 % C and 98 % C
Substance: Sphingomyelin

Substance: Phosphatidyl Choline
% Increase Retinol Dehydrogenase (Retinol Dehydrogenase): 21% increase
TG as % C Compd 1 ([1]; Compound 1 alone, in the presence of 10^-7M retinol): 88 % C
TG as % C Compd 2 ([1]; Compound 2 alone, in the presence of 10^-7M retinol): 88 % C
TG as % C, Compd 3 [1, 2]: 88 % C
Tgase levels (Mean) ([1]; booster 1.2E−08 Molar): 159 % of control
Tgase levels (Mean) ([1]; booster 1.47E−05 Molar): 120.3 % of control
Tgase levels (Mean) ([1]; booster 1.63E−06 Molar): 98.8 % of control
Tgase levels (Mean) ([1]; booster 1.8E−07 Molar): 75.9 % of control
Tgase levels (Mean) ([1]; booster 2.4E−09 Molar): 85.5 % of control
Tgase levels (Mean) ([1]; booster 4.4E−05 Molar): 90.9 % of control
Tgase levels (Mean) ([1]; booster 4.89E−06 Molar): 70.1 % of control
Tgase levels (Mean) ([1]; booster 5.43E−07 Molar): 86.7 % of control
Tgase levels (Mean) ([1]; booster 6.0E−08 Molar): 87.8 % of control
TG as % C Compd 1 ([1]; compound 1 alone, with retinol): 98 % C
TG as % C Compd 2 ([1]; compound 2 alone, with retinol, listed as Phospahtidylcholine): 97 % C
TG as % C Compd 2 ([1]; compound 2 alone, with retinol, listed as Phosphatidyl choline): 98 % C
TG as % C Compd 2 ([1]; compound 2 alone, with retinol, listed as Phosphatidylcholine): 97 % C
